Where “and” joins values, the source holds several entries; their conditions need not be identical. Identical values can stand only once.
Assays:
[1] = instrument: DT, single field, calibrated with Agilent tune mix (Agilent)
[2] = instrument: DT, stepped-field
[3] = [M+Na]+; instrument: DT; stepped-field

Row | SMILES | collision cross section (N2) ([1]; [M+H]+) | collision cross section (N2) ([2]; [M+Na]+) | collision cross section (N2) ([2]; [M+K]+) | other results
1 | CCCCCCCCCCCCC=CC[C@@H](O)[C@H](CO[C@@H]1O[C@H](CO)[C@@H](O)C(O)C1O)NC(=O)CCCCCCCCCCCCCCCCC (some centres not stated) [GlcCer(36:1)] | 284.1 Å² | 286.7 Å² |  | collision cross section (N2) ([1]; [M+HCOO]-): 283.3 Å²; collision cross section (N2) ([1]; [M+Na]+): 283.5 Å²
2 | CCCCCCCCCCCCC=CC[C@@H](O)[C@H](CO[C@@H]1O[C@H](CO)[C@@H](O)C(O)C1O)NC(=O)CCCCCCCCCCCCCCCCCCCCCC (some centres not stated) [GlcCer(41:1)] | 298.5 Å² | 302.5 Å² |  | 
3 | CCCCCCCCCCCCC=CC[C@@H](O)[C@H](CO[C@@H]1O[C@H](CO)[C@@H](O)C(O)C1O)NC(=O)CCCCCCCCCCCCCCCCCCCCCCC (some centres not stated) [GlcCer(42:1)] | 301.5 Å² | 307.5 Å² |  | collision cross section (N2) ([1]; [M+HCOO]-): 299.4 Å²; collision cross section (N2) ([1]; [M+Na]+): 302.8 Å²
4 | CC/C=C\C/C=C\C/C=C\C/C=C\C/C=C\CCCC(=O)OC[C@H](COP(=O)([O-])OCC[N+](C)(C)C)OC(=O)CCC/C=C\C/C=C\C/C=C\C/C=C\C/C=C\CC [PC(40:10)] |  | 301.5 Å² |  | 
5 | CCCCCCCCCCCCCCCCC(=O)O[C@H](COC(=O)CCCCCCCCCCCCCCC)COP(=O)(O)OCCN [PE(33:0)] |  |  | 277.2 Å² | 
6 | CCCC/C=C\CCCCCCCC(=O)OC[C@H](COP(=O)(O)OCCN)OC(=O)CCCCC/C=C\C/C=C\C/C=C\C/C=C\CCCCC [PE(36:5)] |  | 278.2 Å² |  | 
7 | CCCCC/C=C\C/C=C\CCCCCCCCCC(=O)OC[C@H](COP(=O)(O)OCCN)OC(=O)CCCCCCCCCCCCCCCCCC [PE(39:2)] |  |  | 295.9 Å² | 

Continued, in another order:

Row | collision cross section (N2) ([1]; [M+H]+) | collision cross section (N2) ([2]; [M+Na]+) | collision cross section (N2) ([2]; [M+K]+) | SMILES | other results
8 | 295.1 Å² | 301.1 Å² |  | CCCCCCCCCCCCC=CC[C@@H](O)[C@H](CO[C@@H]1O[C@H](CO)[C@@H](O)C(O)C1O)NC(=O)CCCCCCCCCCCCCCCCCCCCC (some centres not stated) [GlcCer(40:1)] | collision cross section (N2) ([1]; [M+HCOO]-): 294.5 Å²; collision cross section (N2) ([1]; [M+Na]+): 296.5 Å²
9 |  | 202.7 Å² | 221.9 Å² | OC[C@H]1O[C@@](CO)(O[C@H]2O[C@H](CO)[C@@H](O)[C@H](O)[C@H]2O)[C@@H](O[C@H]2O[C@H](CO)[C@@H](O)[C@H](O)[C@H]2O)[C@@H]1O [Melezitose] | collision cross section (N2) ([2]; [M+Cs]+): 205.8 Å²; collision cross section (N2) ([2]; [M+H]+): 202.6 Å²; collision cross section (N2) ([2]; [M+Li]+): 202.9 Å²; collision cross section (N2) ([2]; [M+Rb]+): 204.1 Å² and 219.2 Å²; collision cross section (N2) [3]: 203.23 Å²
10 | 286.4 Å² |  | 297.7 Å² | CCCCCCC/C=C\CCCCCCCC(=O)OC[C@H](COP(=O)([O-])OCC[N+](C)(C)C)OC(=O)CCCCCCC/C=C\CCCCCCCC [PC(35:2)] | 
11 |  |  | 245.4 Å² | CCCCCCC=CCC=CCC(=O)OC[C@H](COP(=O)(O)OCCN)OC(=O)CC=CCC=CCCCCCC [PE(26:4)] | 
12 |  |  | 241.7 Å² | CCCC=CCC=CCC=CCC(=O)OC[C@H](COP(=O)(O)OCCN)OC(=O)CC=CCC=CCC=CCCC [PE(26:6)] | 
13 |  |  | 286.2 Å² | CCCCCCCCCCCCCCCCCCC(=O)O[C@H](COC(=O)CCCCCCCCCCCCCCC)COP(=O)(O)OCCN [PE(35:0)] | 
14 |  | 276.3 Å² |  | CC/C=C\C/C=C\C/C=C\C/C=C\CCCCC(=O)O[C@H](COC(=O)CCCCCCC/C=C\C/C=C\CCCCC)COP(=O)(O)OCCN [PE(36:6)] | 
15 |  | 281.9 Å² |  | CC/C=C\C/C=C\C/C=C\C/C=C\CCCCC(=O)O[C@H](COC(=O)CCC/C=C\C/C=C\C/C=C\C/C=C\CCCCC)COP(=O)(O)OCCN [PE(38:8)] | 
